We go through five compounds from ChEMBL document CHEMBL5625210, “5-Cyano substituted diarylpyridines as potent HIV-1 NNRTIs: Rational design, synthesis, and activity evaluation” (Eur J Med Chem, 2023).

Structures are written as SMILES. A value given as a limit tells only on which side of the number the result lay.

The test system of data set [1] is Human immunodeficiency virus 1. The data set is described as follows: Antiviral activity against HIV-1 F227L/V106A mutant infected in human MT4 cells assessed as protection against virus-induced cytopathic effect incubated for 5 days by MTT assay. The class given is functional, organism-based. As to conditions: Human immunodeficiency virus 1, MT4, 120 h.
For data set [2], the system named is Human immunodeficiency virus 2. Put plainly: Antiviral activity against wild type HIV-2 ROD infected in human MT4 cells assessed as protection against virus-induced cytopathic effect incubated for 5 days by MTT assay. The data set is classed as functional, organism-based. As to conditions: Human immunodeficiency virus 2, ROD, MT4, 120 h. (In general: Cytopathic effects are the visible damage that an infection or toxin causes in cultured cells.)

The subject of data set [3] is Human immunodeficiency virus 1. The data set is described as follows: microbe, parasite or virus in culture. The settings on record: Human immunodeficiency virus 1, MT4, 120 h.
Description: Antiviral activity against HIV-1 RES056 mutant infected in human MT4 cells assessed as protection against virus-induced cytopathic effect incubated for 5 days by MTT assay
In data set [4] the test system is Human immunodeficiency virus 1. The data set is described as follows: Antiviral activity against HIV-1 E138K mutant infected in human MT4 cells assessed as protection against virus-induced cytopathic effect incubated for 5 days by MTT assay. The data set is classed as functional, organism-based. As to conditions: Human immunodeficiency virus 1, MT4, 120 h.
Data set [5] is described as follows: Cytotoxicity against human MT4 cells assessed as reduction in cell viability incubated for 5 days by MTT assay. The class given is toxicity, cell-based. As to conditions: time 5 day. (Tetrazolium dyes change colour on reduction, which living cells bring about.)
The next data set is described as follows: in vitro. As to conditions: human, MT4 cells.
For data set [6], the system named is Human immunodeficiency virus 1. The data set is described as follows: Antiviral activity against HIV-1 K103N mutant infected in human MT4 cells assessed as protection against virus-induced cytopathic effect incubated for 5 days by MTT assay. As to conditions: Human immunodeficiency virus 1, MT4, 120 h. The class given is functional, organism-based.
Data set [7] deals with Human immunodeficiency virus type 1 reverse transcriptase (Human immunodeficiency virus 1, UniProt Q72547). Put plainly: Inhibition of wild type HIV-1 reverse transcriptase assessed as inhibition of biotin-dUTP incorporation using ABTS as substrate incubated for 1 hrs by ELISA analysis.
The test system of data set [8] is Human immunodeficiency virus 1. Put plainly: Antiviral activity against HIV-1 Y181C mutant infected in human MT4 cells assessed as protection against virus-induced cytopathic effect incubated for 5 days by MTT assay. The settings on record: Human immunodeficiency virus 1, MT4, 120 h. The data set is classed as functional, organism-based.
Data set [9] has as its system Human immunodeficiency virus 1. The data set is described as follows: Antiviral activity against HIV-1 […] mutant infected in human MT4 cells assessed as protection against virus-induced cytopathic effect incubated for 5 days by MTT assay. The class given is functional, organism-based. As to conditions: Human immunodeficiency virus 1, MT4, 120 h.
The subject of data set [10] is Human immunodeficiency virus 1. The data set is described as follows: Antiviral activity against HIV-1 Y188L mutant infected in human MT4 cells assessed as protection against virus-induced cytopathic effect incubated for 5 days by MTT assay. The data set is classed as functional, organism-based. The settings on record: Human immunodeficiency virus 1, MT4, 120 h.
Data set [11] has as its system Human immunodeficiency virus 1. The data set is described as follows: Antiviral activity against wild type HIV-1 IIIB infected in human MT4 cells assessed as protection against virus-induced cytopathic effect incubated for 5 days by MTT assay. The class given is functional, organism-based. The settings on record: Human immunodeficiency virus 1, IIIB, MT4, 120 h.

Description for in vitro: Selectivity index, ratio of CC50 for cytotoxicity against human MT4 cells to EC50 for antiviral activity against wild type HIV-1 IIIB infected in human MT4 cells

For `Cc1cc(C#N)cc(C)c1Oc1nc(Nc2ccc(C#N)c(F)c2)c(C#N)cc1F`, the concentration for a half-maximal effect (EC50) was 710 nM in [1]; more than 218 nM in data set [2]; more than 218000 nM in data set [3]; 141 nM in [4]; 540 nM in [6]; 1930 nM in data set [8]. The EC50 amounted to 316 nM in data set [9], 16700 nM in data set [10] and 10.4 nM in data set [11]. Moreover, the CC50 at 120 h in data set [5] stood at 218000 nM. Also, the selectivity ratio in the data set “in vitro” turned out to be 20900. In data set [7], the IC50 amounted to 143 nM.

As to `Cc1cc(C#N)cc(C)c1Oc1ccc(C#N)c(NC2CCN(Cc3ccc(S(C)(=O)=O)cc3)CC2)n1`, the EC50 in [1] is 182 nM; in [2], more than 19.1 nM; in data set [3], 7180 nM; in [4], 211 nM; in data set [6] it was 34.9 nM; in data set [8] it was 38.8 nM. In addition, the EC50 in data set [9] was determined as 136 nM; in data set [10], 244 nM; in [11] it was 5.82 nM. Moreover, the CC50 at 120 h in [5] was 19100 nM. The selectivity ratio in the data set “in vitro” stood at 3290. Also, the IC50 in data set [7] amounted to 429 nM.

`Cc1cc(C#N)cc(C)c1Oc1nc(NC2CCN(Cc3ccc(C(N)=O)cc3)CC2)c(C#N)cc1Cl`: the EC50 in data set [1] was 357 nM; in data set [2] it was more than 154 nM; in data set [3], 2440 nM; in data set [4], 33 nM; in data set [6], 31.1 nM; in data set [8], 40.8 nM. Moreover, the EC50 worked out at 66 nM in data set [9], 221 nM in data set [10] and 5.83 nM in data set [11]. Besides, the CC50 at 120 h in [5] was 154000 nM. Moreover, the selectivity ratio in “in vitro” is 26500. The IC50 in [7] was 402 nM.

Consider `Cc1cc(C#N)cc(C)c1Oc1nc(NC2CCN(Cc3ccc(C(N)=O)cc3)CC2)c(C#N)cc1F`, for which the EC50 is 347 nM in data set [1]; more than 24.5 nM in data set [2]; 3590 nM in data set [3]; 26.1 nM in data set [4]; 44.1 nM in data set [6]; 84.2 nM in data set [8]. Further, the EC50 is 100 nM in data set [9], 227 nM in data set [10] and 6.02 nM in [11]. Besides, the CC50 at 120 h in data set [5] was 24100 nM. Moreover, the selectivity ratio in the data set “in vitro” worked out at 4010. Also, in data set [7], the IC50 was determined as 303 nM.

Consider `Cc1cc(C#N)cc(C)c1Oc1nc(Nc2ccc(C#N)cc2)c(C#N)cc1F`, for which the EC50 is not below 17400 nM in data set [1]; more than 311 nM in data set [2]; more than 62300 nM in [3]; 341 nM in data set [4]; 2040 nM in data set [6]; 22400 nM in [8]. Besides, the EC50 is 1140 nM in [9], more than 62300 nM in [10] and 7.47 nM in data set [11]. In addition, in data set [5], the CC50 at 120 h is more than 62300 nM. The selectivity ratio in “in vitro” was more than 8330. In addition, the IC50 in [7] was found to be 112 nM.

A word on the EC50: it is the concentration needed to bring the measured effect to its halfway point. The CC50 is the concentration that lowers cell viability or growth by half. For orientation: IC50 means the concentration needed to halve the response being measured.
